How the values were obtained:
Details in all cases: 48 h
NOMO1 [1] = experiment: cell viability relative to DMSO control; higher = less cytotoxic
Summary of the method: (§1)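 In 1536-well plates, 5 μl of leukemia cells were seeded per well: 500 cells/well for NOMO1 or SEM and 1000 cells/well for P12-Ichikawa. Each line had first been adapted for at least four passages in each medium. Library compounds in DMSO were pin-dosed at 11 threefold concentrations between 47 μM and 0.79 nM, and CellTiter-Glo One luminescence was read after 48 h at 37°C. Viability is a per-plate percentage relative to DMSO wells, with cell-free wells as background.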

P12-Ichikawa [2] = experiment: as above
Summary of the method: as §1

SEM cells [3] = experiment: as above
Summary of the method: as §1

NOMO1 [4] = experiment: AUC of viability dose-response curve (% viability x log10 dose units); higher = less sensitive
Summary of the method: (§2)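 In 1536-well plates, leukemia cells adapted to each medium (500 or 1000 cells/well) were exposed for 48 h at 37°C to library compounds in DMSO across 11 threefold doses, 47 μM down to 0.79 nM. Viability was read by CellTiter-Glo One luminescence and normalised per plate to DMSO and cell-free wells. A four-parameter log-logistic fit over log10 doses was integrated by trapezoidal rule. This yielded the area under the curve, with over-full-viability curves scaled and quality-control failures dropped.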

P12-Ichikawa [5] = experiment: as above
Summary of the method: as §2

SEM cells [6] = experiment: as above
Summary of the method: as §2

COC1=CC=C2Nc3cc(Cl)ccc3C(N=C3C=C(CN4CCCC4)C(=O)C(CN4CCCC4)=C3)=C2N1
cell viability [%]
Details | NOMO1 [1] | P12-Ichikawa [2] | SEM cells [3]
HPLM + 10% dialyzed FBS, 0.000781 µM | – | 116 | 90.6
HPLM + 10% dialyzed FBS, 0.00234 µM | – | 116 | 113
HPLM + 10% dialyzed FBS, 0.00702 µM | – | 116 | 103
HPLM + 10% dialyzed FBS, 0.0211 µM | – | 122 | 105
HPLM + 10% dialyzed FBS, 0.0632 µM | – | 123 | 107
HPLM + 10% dialyzed FBS, 0.19 µM | – | 123 | 101
HPLM + 10% dialyzed FBS, 0.569 µM | – | 120 | 106
HPLM + 10% dialyzed FBS, 1.71 µM | – | 127 | 111
HPLM + 10% dialyzed FBS, 5.12 µM | – | 124 | 117
HPLM + 10% dialyzed FBS, 15.4 µM | – | 117 | 61.5
HPLM + 10% dialyzed FBS, 46.1 µM | – | 103 | 7.01
RPMI 5 mM glucose + 10% FBS, 0.000781 µM | 105 | 110 | 107
RPMI 5 mM glucose + 10% FBS, 0.00234 µM | 103 | 131 | 112
RPMI 5 mM glucose + 10% FBS, 0.00702 µM | 120 | 114 | 120
RPMI 5 mM glucose + 10% FBS, 0.0211 µM | 110 | 130 | 110
RPMI 5 mM glucose + 10% FBS, 0.0632 µM | 133 | 133 | 115
RPMI 5 mM glucose + 10% FBS, 0.19 µM | 127 | 130 | 110
RPMI 5 mM glucose + 10% FBS, 0.569 µM | 125 | 133 | 121
RPMI 5 mM glucose + 10% FBS, 1.71 µM | 135 | 132 | 113
RPMI 5 mM glucose + 10% FBS, 5.12 µM | 116 | 129 | 121
RPMI 5 mM glucose + 10% FBS, 15.4 µM | 119 | 122 | 79
RPMI 5 mM glucose + 10% FBS, 46.1 µM | 119 | 87.6 | 50.3
RPMI 5 mM glucose + 10% dialyzed FBS, 0.000781 µM | – | 113 | 83.1
RPMI 5 mM glucose + 10% dialyzed FBS, 0.00234 µM | – | 123 | 108
RPMI 5 mM glucose + 10% dialyzed FBS, 0.00702 µM | – | 120 | 108
RPMI 5 mM glucose + 10% dialyzed FBS, 0.0211 µM | – | 126 | 102
RPMI 5 mM glucose + 10% dialyzed FBS, 0.0632 µM | – | 120 | 102
RPMI 5 mM glucose + 10% dialyzed FBS, 0.19 µM | – | 115 | 115
RPMI 5 mM glucose + 10% dialyzed FBS, 0.569 µM | – | 127 | 115
RPMI 5 mM glucose + 10% dialyzed FBS, 1.71 µM | – | 125 | 80.4
RPMI 5 mM glucose + 10% dialyzed FBS, 5.12 µM | – | 115 | 105
RPMI 5 mM glucose + 10% dialyzed FBS, 15.4 µM | – | 117 | 56.4
RPMI 5 mM glucose + 10% dialyzed FBS, 46.1 µM | – | 93 | 24

AUC of viability dose-response curve
Details | NOMO1 [4] | P12-Ichikawa [5] | SEM cells [6]
HPLM + 10% dialyzed FBS | 472 | 472 | 435
RPMI 5 mM glucose + 10% FBS | 459 | 468 | 449
RPMI 5 mM glucose + 10% dialyzed FBS | 475 | 469 | 437

C[C@]\1(CCS\C(=N1)N)C2=CC(=C(F)C=C2F)C3=CN=CN=C3
cell viability [%]
Details | NOMO1 [1] | P12-Ichikawa [2] | SEM cells [3]
HPLM + 10% dialyzed FBS, 0.000781 µM | 95.4 | 98.2 | 80
HPLM + 10% dialyzed FBS, 0.00234 µM | 106 | 101 | 95.5
HPLM + 10% dialyzed FBS, 0.00702 µM | 103 | 112 | 91.6
HPLM + 10% dialyzed FBS, 0.0211 µM | 95.2 | 103 | 94.5
HPLM + 10% dialyzed FBS, 0.0632 µM | 118 | 110 | 90.4
HPLM + 10% dialyzed FBS, 0.19 µM | 112 | 115 | 94.6
HPLM + 10% dialyzed FBS, 0.569 µM | 98.2 | 115 | 108
HPLM + 10% dialyzed FBS, 1.71 µM | 91.3 | 122 | 99.3
HPLM + 10% dialyzed FBS, 5.12 µM | 38.1 | 106 | 102
HPLM + 10% dialyzed FBS, 15.4 µM | 25 | 15.2 | 102
HPLM + 10% dialyzed FBS, 46.1 µM | 3.54 | 2.53 | 29.3
RPMI 5 mM glucose + 10% FBS, 0.000781 µM | 105 | 99.3 | 92
RPMI 5 mM glucose + 10% FBS, 0.00234 µM | 107 | 103 | 84.1
RPMI 5 mM glucose + 10% FBS, 0.00702 µM | 101 | 119 | 98
RPMI 5 mM glucose + 10% FBS, 0.0211 µM | 100 | 117 | 104
RPMI 5 mM glucose + 10% FBS, 0.0632 µM | 98 | 113 | 106
RPMI 5 mM glucose + 10% FBS, 0.19 µM | 101 | 114 | 95.7
RPMI 5 mM glucose + 10% FBS, 0.569 µM | 100 | 121 | 96.6
RPMI 5 mM glucose + 10% FBS, 1.71 µM | 60.6 | 113 | 114
RPMI 5 mM glucose + 10% FBS, 5.12 µM | 20.3 | 117 | 71.2
RPMI 5 mM glucose + 10% FBS, 15.4 µM | 20.1 | 30.2 | 5.19
RPMI 5 mM glucose + 10% FBS, 46.1 µM | 15 | 8.85 | 2.28
RPMI 5 mM glucose + 10% dialyzed FBS, 0.000781 µM | 80.4 | 92.1 | 95.1
RPMI 5 mM glucose + 10% dialyzed FBS, 0.00234 µM | 107 | 109 | 80.4
RPMI 5 mM glucose + 10% dialyzed FBS, 0.00702 µM | 98.5 | 104 | 107
RPMI 5 mM glucose + 10% dialyzed FBS, 0.0211 µM | 103 | 109 | 111
RPMI 5 mM glucose + 10% dialyzed FBS, 0.0632 µM | 109 | 110 | 103
RPMI 5 mM glucose + 10% dialyzed FBS, 0.19 µM | 106 | 108 | 96.4
RPMI 5 mM glucose + 10% dialyzed FBS, 0.569 µM | 100 | 101 | 101
RPMI 5 mM glucose + 10% dialyzed FBS, 1.71 µM | 96.2 | 98.6 | 108
RPMI 5 mM glucose + 10% dialyzed FBS, 5.12 µM | 26.4 | 99.8 | 95.8
RPMI 5 mM glucose + 10% dialyzed FBS, 15.4 µM | 19.8 | 62 | 51.3
RPMI 5 mM glucose + 10% dialyzed FBS, 46.1 µM | 22.5 | 13.4 | 2.95

AUC of viability dose-response curve
Details | NOMO1 [4] | P12-Ichikawa [5] | SEM cells [6]
HPLM + 10% dialyzed FBS | 378 | 411 | 441
RPMI 5 mM glucose + 10% FBS | 359 | 420 | 390
RPMI 5 mM glucose + 10% dialyzed FBS | 383 | 435 | 429

CC(C)C[C@H](CN)CC(=O)O
cell viability [%]
Details | NOMO1 [1] | P12-Ichikawa [2] | SEM cells [3]
HPLM + 10% dialyzed FBS, 0.000781 µM | 105 | 111 | 110
HPLM + 10% dialyzed FBS, 0.00234 µM | 108 | 106 | 116
HPLM + 10% dialyzed FBS, 0.00702 µM | 122 | 106 | 105
HPLM + 10% dialyzed FBS, 0.0211 µM | 109 | 109 | 111
HPLM + 10% dialyzed FBS, 0.0632 µM | 98.1 | 106 | 97.6
HPLM + 10% dialyzed FBS, 0.19 µM | 96.1 | 103 | 98.8
HPLM + 10% dialyzed FBS, 0.569 µM | 108 | 101 | 115
HPLM + 10% dialyzed FBS, 1.71 µM | 117 | 102 | 102
HPLM + 10% dialyzed FBS, 5.12 µM | 101 | 95.7 | 119
HPLM + 10% dialyzed FBS, 15.4 µM | 79.6 | 94.2 | 37.9
HPLM + 10% dialyzed FBS, 46.1 µM | 91.7 | 93 | 93.9
RPMI 5 mM glucose + 10% FBS, 0.000781 µM | 90.3 | 99.4 | 102
RPMI 5 mM glucose + 10% FBS, 0.00234 µM | 95.6 | 105 | 102
RPMI 5 mM glucose + 10% FBS, 0.00702 µM | 102 | 102 | 98.7
RPMI 5 mM glucose + 10% FBS, 0.0211 µM | 97.8 | 96.2 | 105
RPMI 5 mM glucose + 10% FBS, 0.0632 µM | 87.9 | 101 | 93.9
RPMI 5 mM glucose + 10% FBS, 0.19 µM | 89.9 | 99.3 | 88.7
RPMI 5 mM glucose + 10% FBS, 0.569 µM | 99.3 | 93.6 | 104
RPMI 5 mM glucose + 10% FBS, 1.71 µM | 93.6 | 96.1 | 113
RPMI 5 mM glucose + 10% FBS, 5.12 µM | 91.5 | 92.3 | 103
RPMI 5 mM glucose + 10% FBS, 15.4 µM | 90.3 | 91.5 | 41.2
RPMI 5 mM glucose + 10% FBS, 46.1 µM | 83.8 | 95.6 | 92.1
RPMI 5 mM glucose + 10% dialyzed FBS, 0.000781 µM | 97.3 | 103 | 101
RPMI 5 mM glucose + 10% dialyzed FBS, 0.00234 µM | 100 | 102 | 105
RPMI 5 mM glucose + 10% dialyzed FBS, 0.00702 µM | 105 | 107 | 107
RPMI 5 mM glucose + 10% dialyzed FBS, 0.0211 µM | 106 | 106 | 103
RPMI 5 mM glucose + 10% dialyzed FBS, 0.0632 µM | 95.8 | 97.1 | 110
RPMI 5 mM glucose + 10% dialyzed FBS, 0.19 µM | 97.6 | 96 | 102
RPMI 5 mM glucose + 10% dialyzed FBS, 0.569 µM | 99.3 | 98.9 | 113
RPMI 5 mM glucose + 10% dialyzed FBS, 1.71 µM | 89.3 | 96.6 | 109
RPMI 5 mM glucose + 10% dialyzed FBS, 5.12 µM | 99.2 | 95.7 | 97.1
RPMI 5 mM glucose + 10% dialyzed FBS, 15.4 µM | 92.1 | 97.9 | 38.8
RPMI 5 mM glucose + 10% dialyzed FBS, 46.1 µM | 90 | 98.4 | 110

AUC of viability dose-response curve
Details | NOMO1 [4] | P12-Ichikawa [5] | SEM cells [6]
HPLM + 10% dialyzed FBS | 460 | 450 | 449
RPMI 5 mM glucose + 10% FBS | 445 | 458 | 452
RPMI 5 mM glucose + 10% dialyzed FBS | 458 | 455 | 451

From the supplement of paper PMC11451515
